{
  "source": "patent US7402591B2",
  "about": "“Analgesic compositions containing buprenorphine” (Reckitt Benckiser Healthcare (UK) Limited, priority 1999, dated 2008)",
  "test_system": "thermal nociceptive threshold (hindpaw withdrawal latency) in rats with peripheral mononeuropathy",
  "assay": "Hargreaves paw withdrawal (plantar) test in rats with sciatic nerve ligation neuropathy",
  "format": "in vivo, rat",
  "method": "The operator positions the I.R. Generator directly beneath the hind paw of the rat and activates both the I.R. Source and a reaction time counter. When the rat feels pain and withdraws its paw, the I.R. Generator is automatically switched off and the timer stops, determining the withdrawal latency.\nThe testing was carried out on the eighth day following the operative procedure.\nIn order to determine a baseline for comparison purposes, rats were subjected to the Hargreaves paw withdrawal test before the subcutaneous injection of the various drugs or drug combinations being tested. The rats were then injected subcutaneously with the particular drug or drug combination being tested and the percentage change in time for the rat to withdraw its paw from the thermal stimulation, in comparison with the baseline, was recorded as a percentage in paw withdrawal latency. […]\nAfter 8 days, thermal nociceptive threshold, as determined by hindpaw withdrawal latency, was measured using a plantar test (Ugo Basile, Comero, Italy). […] This initiated a timing circuit which measured the time interval between the application of the light beam and the withdrawal of the hind paw. […]\nPaw withdrawal latency was determined before injection and at different times after injection. […]",
  "data": [
    {"smiles": "C=CCN1CC[C@]23c4c5ccc(O)c4O[C@H]2C(=O)CC[C@@]3(O)[C@H]1C5", "note": "[naloxone, 1-N-allyl-14-hydroxynorhydromorphinone]", "values": [
      {"measurement": "potentiation of sub-clinical doses of buprenorphine", "setting": "Example 1, FIG. 1, low dose naloxone, weight ratios 20:1 and 15:1, subcutaneous, rats n=3", "value": "can be clearly seen"},
      {"measurement": "potentiation of the sub-clinical doses of buprenorphine", "setting": "Example 2, FIG. 2, buprenorphine 2.5 μg/kg co-administered subcutaneously at weight ratios 5:1 to 30:1, rats n=6", "value": "can be clearly seen"}
    ]}
  ]
}
